Experimental data taken from patent publication US20130172294A1, “Treatment with VB-201” (Vascular Biogenics Ltd., priority 2010, published 2013).

Assays:
[1] = tested on: collagen-induced arthritis; conditions: in vivo animal model; cited from earlier work
[2] = tested on: adjuvant-induced arthritis; conditions: in vivo animal model; cited from earlier work
[3] = Safety and tolerability, food and coating study (Example 3); assay type: in vivo, human
Source text: Safety and tolerability of VB-201 was judged by evaluating the incidence of abnormal findings in the following measurements: vital signs: systolic and diastolic blood pressure, heart rate, respiratory rate, body temperature; physical examination; 12-lead electrocardiogram; laboratory tests of blood samples for: complete blood count, prothrombin time/partial thromboplastin time, LDL- and HDL-cholesterol, total cholesterol, triglycerides, glucose, blood urea nitrogen, sodium, potassium, creatinine, calcium, phosphorus, creatinine phosphokinase, lactate dehydrogenase, aspartate transaminase, alanine transaminase, γ-glutamyl transferase, alkaline phosphatase, protein, albumin, total bilirubin, total IgM and IgG antibodies, interleukin-12/23 p40, tumor necrosis factor-α, and interleukin-6, as well as routine urinalysis; and all adverse events, whether or not considered serious, and whether or not considered related to the investigational agent, according to the criteria for Good Clinical Practice. Treatment-emergent adverse events were defined as any adverse event that started on or after administration of the first dose of VB-201, and no more than 30 days after administration of the last dose, or are ongoing at the time of the first dose and worsened in severity or frequency during treatment. […]

[4] = Repeated daily dose pharmacokinetics, 40 and 80 mg (Example 4); assay type: in vivo, human
Description: Determination of VB-201 concentrations in plasma was performed using an HPLC-MS/MS (high performance liquid chromatography with tandem mass spectrometric detection) assay. Calibration was for a range of from 5 to 500 ng/ml for low doses and from 50 to 5000 ng/ml for high doses. Pharmacokinetic parameters were estimated by using a non-compartmental method, except for the AUC (area under curve), which was determined using a (log-) trapezoidal rule as the area above the previous trough level. […] The subjects were all healthy volunteers. […] 6 subjects received a placebo. The VB-201 was formulated in non-enterocoated capsules. Blood was collected for pharmacokinetic evaluation on day 1 (40 mg cohort) and on day 14 (40 and 80 mg cohorts).

[5] = Safety and tolerability of single dose (Example 1); assay type: in vivo, human; conditions: single oral dose 1-50 mg
Source text: Safety and tolerability of VB-201 was judged by evaluating the incidence of abnormal findings in the following measurements: vital signs: systolic and diastolic blood pressure, heart rate, respiratory rate, body temperature; physical examination; 12-lead electrocardiogram; laboratory tests of blood samples for: complete blood count, prothrombin time/partial thromboplastin time, LDL- and HDL-cholesterol, total cholesterol, triglycerides, glucose, blood urea nitrogen, sodium, potassium, creatinine, calcium, phosphorus, creatinine phosphokinase, lactate dehydrogenase, aspartate transaminase, alanine transaminase, γ-glutamyl transferase, alkaline phosphatase, protein, albumin, total bilirubin, total IgM and IgG antibodies, interleukin-12/23 p40, tumor necrosis factor-α, and interleukin-6, as well as routine urinalysis; and all adverse events, whether or not considered serious, and whether or not considered related to the investigational agent, according to the criteria for Good Clinical Practice. Treatment-emergent adverse events were defined as any adverse event that started on or after administration of the first dose of VB-201, and no more than 30 days after administration of the last dose, or are ongoing at the time of the first dose and worsened in severity or frequency during treatment. […] All subjects were healthy male volunteers. Five cohorts of six subjects each received a single dose of 1, 3, 10, 30 or 50 mg VB-201. 10 subjects received a placebo. The VB-201 was formulated in gelatin capsules enterocoated with Eudragit®.

interleukin-23 (IL-23) = experiment: Plasma cytokine assay, IL-23 (Example 5); assay type: in vivo, human
Description: Acquisition of samples was performed using FacsCalibur (Becton Dickinson).

Compound: CCCCCCCCCCCCCCCCOCC(COP(=O)([O-])OCC[N+](C)(C)C)OCCCCC(=O)O (centres unmarked) [VB-201, 1-hexadecyl-2-(4′-carboxybutyl)-glycerol-3-phosphocholine]
- efficacy in collagen-induced arthritis [1]: effective
- efficacy in adjuvant-induced arthritis [2]: effective
- safety and tolerability ([3]; enteric coated and non-coated capsules, 10 to 20 mg, fasting or fed): as safe and tolerable as placebo
- serious or treatment-emergent adverse events ([3]; single dose 10-20 mg, coated and non-coated, fed and fasting): No serious or treatment-emergent adverse events occurred
- AUC(0-infinity) ([4]; daily 40 mg, Day 1): 31952 ± 9680 ng·h/mL
- Cl/F (0-24) ([4]; daily 40 mg, Day 1): 2.837 ± 1.064 L/h
- Cl/F(0-infinity) ([4]; daily 40 mg, Day 1): 1.346 ± 0.401 L/h
- Cmax ([4]; daily 40 mg, Day 1): 923.7 ± 287.4 ng/mL
- Ke ([4]; daily 40 mg, Day 1): 0.0305 ± 0.0124 h⁻¹
- MTT (0-24) ([4]; daily 40 mg, Day 1): 12.0 ± 0.5 h
- MTT(0-infinity) ([4]; daily 40 mg, Day 1): 41.3 ± 17.6 h
- T1/2 ([4]; daily 40 mg, Day 1): 26.8 ± 13.0 h
- Tmax ([4]; daily 40 mg, Day 1): 8.7 ± 3.8 h
- AUC(0-24) ([4]; daily 40 mg, Day 14): 47393 ± 16792 ng·h/mL
- AUC(0-infinity) ([4]; daily 40 mg, Day 14): 117013 ± 55816 ng·h/mL
- Cl/F (0-24) ([4]; daily 40 mg, Day 14): 0.970 ± 0.436 L/h
- Cl/F(0-infinity) ([4]; daily 40 mg, Day 14): 0.405 ± 0.172 L/h
- Cmax ([4]; daily 40 mg, Day 14): 2544.6 ± 800.5 ng/mL
- Ke ([4]; daily 40 mg, Day 14): 0.0270 ± 0.0111 h⁻¹
- MTT (0-24) ([4]; daily 40 mg, Day 14): 11.1 ± 0.4 h
- MTT(0-infinity) ([4]; daily 40 mg, Day 14): 45.2 ± 18.8 h
- T1/2 ([4]; daily 40 mg, Day 14): 30.2 ± 13.6 h
- Tmax ([4]; daily 40 mg, Day 14): 4.2 ± 2.0 h
- AUC(0-24) ([4]; daily 80 mg, Day 14): 89779 ± 21751 ng·h/mL
- AUC(0-infinity) ([4]; daily 80 mg, Day 14): 206918 ± 62474 ng·h/mL
- Cl/F (0-24) ([4]; daily 80 mg, Day 14): 0.941 ± 0.247 L/h
- Cl/F(0-infinity) ([4]; daily 80 mg, Day 14): 0.422 ± 0.144 L/h
- Cmax ([4]; daily 80 mg, Day 14): 4820.2 ± 930.3 ng/mL
- Ke ([4]; daily 80 mg, Day 14): 0.0251 ± 0.0048 h⁻¹
- MTT (0-24) ([4]; daily 80 mg, Day 14): 11.0 ± 0.4 h
- MTT(0-infinity) ([4]; daily 80 mg, Day 14): 41.5 ± 7.8 h
- T1/2 ([4]; daily 80 mg, Day 14): 28.5 ± 5.8 h
- Tmax ([4]; daily 80 mg, Day 14): 6.0 ± 1.1 h
- electrocardiogram findings [5]: None of the subjects which received VB-201 had clinically significant electrocardiogram findings
- safety profile [5]: comparable safety profile of VB-201 to a placebo
- serious adverse events [5]: No serious adverse events occurred
- IL-23 plasma levels (interleukin-23 (IL-23); 40 mg per day, 14 days, both subjects with detectable pre-dose IL-23): considerably reduced
- IL-23 plasma levels (interleukin-23 (IL-23); 80 mg per day, 28 days, all three subjects): considerably reduced
